In ChEMBL document CHEMBL1142806, “Synthesis and assay of isoquinoline derivatives as HIV-1 Tat-TAR interaction inhibitors” (Bioorg Med Chem Lett, 2005):

Columns and labels:
[1] = Percent inhibition of SIV-induced syncytium in CEM174 cells; format: functional
[2] = Binding constant to TAR at 1.107e-4 M concentration
[3] = Effective concentration required to inhibit SIV induced syncytium in CEM174 cells; format: functional, cell-based
[4] = Binding constant to TAR at 0.814e-4 M concentration
[5] = Binding constant to TAR at 0.393e-4 M concentration
[6] = Binding constant to TAR at 0.357e-4 M concentration

Row | K [2] | EC50 [3] [µM] | K [4] | K [5] | K [6] | SMILES | Inhibition [1] [%]
1 | 15400 | 8.74 |  |  |  | NCCCNC(=O)c1cc2ccccc2cn1 | 58.7
2 |  | 12.9 | 33000 |  |  | NCCNC(=O)c1cc2ccccc2cn1 | 44.2
3 |  | 3.92 |  | 169000 |  | N=C(N)NCCCNC(=O)c1cc2ccccc2cn1.O=S(O)O | 60.7
4 |  | 6.86 |  |  | 207000 | N=C(N)NCCNC(=O)c1cc2ccccc2cn1.O=S(O)O | 56.2
